Experimental data taken from ChEMBL document CHEMBL3621100, “Discovery of Novel Class I Histone Deacetylase Inhibitors with Promising in Vitro and in Vivo Antitumor Activities” (J Med Chem, 2015).

Columns and labels:
[1] = biological target: Histone deacetylase 2 (Homo sapiens, UniProt Q92769); assay: Inhibition of recombinant human HDAC2 after 60 mins by fluorescence assay
[2] = Antiproliferative activity against human WI38 cells after 72 hrs by CCK8 assay; assay type: cell-based, WI-38
[3] = biological target: T1, Polyamine deacetylase HDAC10 (Homo sapiens, UniProt Q969S8); assay: Inhibition of recombinant human HDAC10 after 60 mins by fluorescence assay
T1 sequence (Q969S8 whole entry): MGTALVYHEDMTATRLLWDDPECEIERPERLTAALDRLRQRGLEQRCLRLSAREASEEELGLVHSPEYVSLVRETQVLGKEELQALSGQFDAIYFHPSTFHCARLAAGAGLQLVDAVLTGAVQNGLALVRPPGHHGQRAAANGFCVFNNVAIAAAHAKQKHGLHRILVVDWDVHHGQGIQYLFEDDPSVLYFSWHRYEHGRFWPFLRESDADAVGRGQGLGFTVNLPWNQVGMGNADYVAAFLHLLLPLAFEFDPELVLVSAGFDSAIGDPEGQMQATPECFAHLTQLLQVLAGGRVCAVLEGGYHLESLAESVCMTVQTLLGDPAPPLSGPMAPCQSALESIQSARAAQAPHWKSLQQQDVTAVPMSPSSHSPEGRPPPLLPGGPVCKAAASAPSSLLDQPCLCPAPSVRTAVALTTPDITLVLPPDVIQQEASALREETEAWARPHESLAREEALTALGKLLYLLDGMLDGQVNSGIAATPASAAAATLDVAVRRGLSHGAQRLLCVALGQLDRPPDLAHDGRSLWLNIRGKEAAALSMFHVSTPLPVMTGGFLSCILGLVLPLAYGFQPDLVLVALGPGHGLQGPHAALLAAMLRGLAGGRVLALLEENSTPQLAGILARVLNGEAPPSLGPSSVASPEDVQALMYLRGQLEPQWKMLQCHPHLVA

[4] = system: U-937; assay: Antiproliferative activity against human U937 cells after 72 hrs by CCK8 assay; assay type: functional
[5] = Antiproliferative activity against human MOLT4 cells after 72 hrs by CCK8 assay; assay type: functional, MOLT-4
[6] = Antiproliferative activity against human HLF cells after 72 hrs by CCK8 assay; assay type: cell-based
[7] = biological target: Histone deacetylase 9 (Homo sapiens, UniProt Q9UKV0); assay: Inhibition of recombinant human HDAC9 after 60 mins by fluorescence assay
Histone deacetylase 9, sequence (Q9UKV0 whole entry): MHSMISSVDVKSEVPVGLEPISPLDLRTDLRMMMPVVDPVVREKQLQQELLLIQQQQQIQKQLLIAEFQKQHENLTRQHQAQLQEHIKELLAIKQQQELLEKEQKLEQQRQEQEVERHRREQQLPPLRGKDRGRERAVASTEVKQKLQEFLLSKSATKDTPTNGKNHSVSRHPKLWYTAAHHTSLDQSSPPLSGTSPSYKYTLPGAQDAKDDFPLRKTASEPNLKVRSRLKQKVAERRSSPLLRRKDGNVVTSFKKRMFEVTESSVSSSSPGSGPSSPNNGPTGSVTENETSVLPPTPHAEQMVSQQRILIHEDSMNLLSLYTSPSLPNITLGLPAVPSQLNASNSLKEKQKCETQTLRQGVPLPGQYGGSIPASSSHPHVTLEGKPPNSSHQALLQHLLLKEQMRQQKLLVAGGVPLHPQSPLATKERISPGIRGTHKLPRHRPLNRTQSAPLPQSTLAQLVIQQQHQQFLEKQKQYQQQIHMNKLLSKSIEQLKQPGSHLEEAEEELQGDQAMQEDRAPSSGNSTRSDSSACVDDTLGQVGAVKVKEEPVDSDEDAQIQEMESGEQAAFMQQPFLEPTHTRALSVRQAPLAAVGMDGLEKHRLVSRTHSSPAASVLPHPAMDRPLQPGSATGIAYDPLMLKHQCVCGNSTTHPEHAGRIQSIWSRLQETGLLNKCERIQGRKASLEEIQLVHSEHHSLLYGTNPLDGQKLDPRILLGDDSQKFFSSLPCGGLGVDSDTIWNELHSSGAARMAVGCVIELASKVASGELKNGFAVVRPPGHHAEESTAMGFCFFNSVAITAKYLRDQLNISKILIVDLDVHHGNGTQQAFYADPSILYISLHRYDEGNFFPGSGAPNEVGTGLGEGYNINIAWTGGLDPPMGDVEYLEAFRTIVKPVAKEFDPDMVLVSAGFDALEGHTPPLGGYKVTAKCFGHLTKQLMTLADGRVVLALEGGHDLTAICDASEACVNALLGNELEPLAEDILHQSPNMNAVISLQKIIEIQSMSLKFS

[8] = biological target: Histone deacetylase 5 (Homo sapiens, UniProt Q9UQL6); assay: Inhibition of recombinant human HDAC5 after 60 mins by fluorescence assay
Histone deacetylase 5, sequence (Q9UQL6 whole entry): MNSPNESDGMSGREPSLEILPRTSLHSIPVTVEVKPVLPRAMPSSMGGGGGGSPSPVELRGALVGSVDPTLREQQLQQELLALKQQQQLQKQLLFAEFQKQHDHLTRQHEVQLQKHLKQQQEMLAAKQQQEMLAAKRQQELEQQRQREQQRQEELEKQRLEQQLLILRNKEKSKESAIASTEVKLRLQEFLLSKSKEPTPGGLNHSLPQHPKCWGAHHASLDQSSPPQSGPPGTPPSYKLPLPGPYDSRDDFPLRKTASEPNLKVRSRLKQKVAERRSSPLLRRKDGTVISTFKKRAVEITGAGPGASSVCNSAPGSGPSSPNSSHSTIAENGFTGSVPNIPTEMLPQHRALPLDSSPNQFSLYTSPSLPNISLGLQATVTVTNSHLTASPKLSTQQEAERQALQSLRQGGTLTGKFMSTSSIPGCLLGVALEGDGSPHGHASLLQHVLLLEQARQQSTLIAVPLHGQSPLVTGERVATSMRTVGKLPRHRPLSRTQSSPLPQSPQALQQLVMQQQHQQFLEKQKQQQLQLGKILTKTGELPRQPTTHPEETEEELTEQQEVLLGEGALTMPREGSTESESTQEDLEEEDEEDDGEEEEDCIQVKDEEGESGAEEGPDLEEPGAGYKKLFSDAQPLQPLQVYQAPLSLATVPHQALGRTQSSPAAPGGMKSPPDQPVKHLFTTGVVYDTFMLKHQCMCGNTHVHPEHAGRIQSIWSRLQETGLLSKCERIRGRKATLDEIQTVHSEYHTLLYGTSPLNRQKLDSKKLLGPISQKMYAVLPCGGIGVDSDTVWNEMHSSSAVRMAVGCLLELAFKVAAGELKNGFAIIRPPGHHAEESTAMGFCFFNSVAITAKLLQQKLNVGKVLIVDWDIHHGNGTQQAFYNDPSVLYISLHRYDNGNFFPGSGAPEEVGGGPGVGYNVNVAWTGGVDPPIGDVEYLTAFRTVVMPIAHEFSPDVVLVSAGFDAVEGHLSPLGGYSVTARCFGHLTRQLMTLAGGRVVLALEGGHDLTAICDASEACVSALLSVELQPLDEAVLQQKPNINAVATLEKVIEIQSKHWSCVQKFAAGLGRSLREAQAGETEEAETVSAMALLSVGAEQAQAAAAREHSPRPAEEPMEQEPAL

[9] = biological target: Histone deacetylase 1 (Homo sapiens, UniProt Q13547); assay: Inhibition of recombinant human HDAC1 after 60 mins by fluorescence assay
Histone deacetylase 1, sequence (Q13547 whole entry): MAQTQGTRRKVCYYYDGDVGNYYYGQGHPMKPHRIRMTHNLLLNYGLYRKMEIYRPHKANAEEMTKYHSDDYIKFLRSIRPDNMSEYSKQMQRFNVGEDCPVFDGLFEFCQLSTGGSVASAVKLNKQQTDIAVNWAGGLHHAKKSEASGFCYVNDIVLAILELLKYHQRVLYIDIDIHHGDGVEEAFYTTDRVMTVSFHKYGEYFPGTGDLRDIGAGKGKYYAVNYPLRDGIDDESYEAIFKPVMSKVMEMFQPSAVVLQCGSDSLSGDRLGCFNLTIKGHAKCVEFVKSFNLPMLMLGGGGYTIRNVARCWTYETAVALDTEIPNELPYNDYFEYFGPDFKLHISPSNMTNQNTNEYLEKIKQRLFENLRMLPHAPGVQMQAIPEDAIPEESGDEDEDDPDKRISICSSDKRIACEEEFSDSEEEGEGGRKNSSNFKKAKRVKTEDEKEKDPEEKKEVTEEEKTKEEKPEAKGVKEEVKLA

[10] = biological target: T2, Histone deacetylase 8 (Homo sapiens, UniProt Q9BY41); assay: Inhibition of recombinant human HDAC8 after 60 mins by fluorescence assay
T2 sequence (Q9BY41 whole entry): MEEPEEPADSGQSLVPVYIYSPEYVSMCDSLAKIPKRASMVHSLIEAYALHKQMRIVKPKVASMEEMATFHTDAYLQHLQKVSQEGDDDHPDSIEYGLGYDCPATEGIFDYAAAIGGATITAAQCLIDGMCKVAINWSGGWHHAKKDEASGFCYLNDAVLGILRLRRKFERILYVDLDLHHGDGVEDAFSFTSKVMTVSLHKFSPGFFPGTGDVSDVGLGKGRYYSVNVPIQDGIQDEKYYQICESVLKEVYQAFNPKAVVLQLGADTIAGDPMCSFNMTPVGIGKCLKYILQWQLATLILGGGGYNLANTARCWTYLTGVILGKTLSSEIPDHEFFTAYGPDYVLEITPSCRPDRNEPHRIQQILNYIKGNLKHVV

[11] = system: DU-145; assay: Antiproliferative activity against human DU145 cells after 72 hrs by CCK8 assay; assay type: functional
[12] = biological target: T3, Histone deacetylase 7 (Homo sapiens, UniProt Q8WUI4); assay: Inhibition of recombinant human HDAC7 after 60 mins by fluorescence assay
T3 sequence (Q8WUI4 whole entry): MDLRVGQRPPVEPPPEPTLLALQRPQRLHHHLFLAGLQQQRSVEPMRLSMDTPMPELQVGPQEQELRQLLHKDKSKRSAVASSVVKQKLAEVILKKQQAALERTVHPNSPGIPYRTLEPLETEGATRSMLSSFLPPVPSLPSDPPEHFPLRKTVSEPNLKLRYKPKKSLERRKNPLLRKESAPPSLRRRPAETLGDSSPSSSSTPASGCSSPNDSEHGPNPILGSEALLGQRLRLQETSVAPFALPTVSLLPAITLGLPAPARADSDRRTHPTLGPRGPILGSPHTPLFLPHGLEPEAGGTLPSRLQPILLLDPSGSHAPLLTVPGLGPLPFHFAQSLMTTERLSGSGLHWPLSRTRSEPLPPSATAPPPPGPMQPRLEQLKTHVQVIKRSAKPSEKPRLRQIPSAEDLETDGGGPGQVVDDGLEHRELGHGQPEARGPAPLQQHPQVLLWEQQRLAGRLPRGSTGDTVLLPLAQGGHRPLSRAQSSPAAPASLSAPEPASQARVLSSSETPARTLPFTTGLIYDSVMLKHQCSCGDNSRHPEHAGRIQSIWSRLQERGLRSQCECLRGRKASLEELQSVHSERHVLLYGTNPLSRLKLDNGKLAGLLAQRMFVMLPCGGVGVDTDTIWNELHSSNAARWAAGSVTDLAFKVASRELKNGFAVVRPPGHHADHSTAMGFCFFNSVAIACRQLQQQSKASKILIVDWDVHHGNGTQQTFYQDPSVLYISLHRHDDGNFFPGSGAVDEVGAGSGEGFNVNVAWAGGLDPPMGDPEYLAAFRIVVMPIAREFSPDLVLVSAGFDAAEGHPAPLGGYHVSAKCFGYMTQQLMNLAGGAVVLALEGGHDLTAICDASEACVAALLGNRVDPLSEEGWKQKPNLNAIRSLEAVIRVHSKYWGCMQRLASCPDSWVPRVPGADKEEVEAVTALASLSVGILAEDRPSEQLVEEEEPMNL

[13] = biological target: T4, Histone deacetylase 11 (Homo sapiens, UniProt Q96DB2); assay: Inhibition of recombinant human HDAC11 after 60 mins by fluorescence assay
T4 sequence (Q96DB2 whole entry): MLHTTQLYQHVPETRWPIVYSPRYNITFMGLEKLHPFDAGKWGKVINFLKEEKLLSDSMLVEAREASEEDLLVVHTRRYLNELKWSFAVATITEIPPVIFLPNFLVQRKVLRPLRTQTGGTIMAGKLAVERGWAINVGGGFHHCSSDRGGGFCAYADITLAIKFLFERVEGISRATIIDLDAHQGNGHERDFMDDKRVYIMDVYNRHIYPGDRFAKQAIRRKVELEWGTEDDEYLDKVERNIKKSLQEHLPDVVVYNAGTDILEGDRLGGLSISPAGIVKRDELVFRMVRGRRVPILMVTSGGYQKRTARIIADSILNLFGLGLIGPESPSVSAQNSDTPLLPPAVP

[14] = biological target: Histone deacetylase 4 (Homo sapiens, UniProt P56524); assay: Inhibition of recombinant human HDAC4 after 60 mins by fluorescence assay
Histone deacetylase 4, sequence (P56524 whole entry): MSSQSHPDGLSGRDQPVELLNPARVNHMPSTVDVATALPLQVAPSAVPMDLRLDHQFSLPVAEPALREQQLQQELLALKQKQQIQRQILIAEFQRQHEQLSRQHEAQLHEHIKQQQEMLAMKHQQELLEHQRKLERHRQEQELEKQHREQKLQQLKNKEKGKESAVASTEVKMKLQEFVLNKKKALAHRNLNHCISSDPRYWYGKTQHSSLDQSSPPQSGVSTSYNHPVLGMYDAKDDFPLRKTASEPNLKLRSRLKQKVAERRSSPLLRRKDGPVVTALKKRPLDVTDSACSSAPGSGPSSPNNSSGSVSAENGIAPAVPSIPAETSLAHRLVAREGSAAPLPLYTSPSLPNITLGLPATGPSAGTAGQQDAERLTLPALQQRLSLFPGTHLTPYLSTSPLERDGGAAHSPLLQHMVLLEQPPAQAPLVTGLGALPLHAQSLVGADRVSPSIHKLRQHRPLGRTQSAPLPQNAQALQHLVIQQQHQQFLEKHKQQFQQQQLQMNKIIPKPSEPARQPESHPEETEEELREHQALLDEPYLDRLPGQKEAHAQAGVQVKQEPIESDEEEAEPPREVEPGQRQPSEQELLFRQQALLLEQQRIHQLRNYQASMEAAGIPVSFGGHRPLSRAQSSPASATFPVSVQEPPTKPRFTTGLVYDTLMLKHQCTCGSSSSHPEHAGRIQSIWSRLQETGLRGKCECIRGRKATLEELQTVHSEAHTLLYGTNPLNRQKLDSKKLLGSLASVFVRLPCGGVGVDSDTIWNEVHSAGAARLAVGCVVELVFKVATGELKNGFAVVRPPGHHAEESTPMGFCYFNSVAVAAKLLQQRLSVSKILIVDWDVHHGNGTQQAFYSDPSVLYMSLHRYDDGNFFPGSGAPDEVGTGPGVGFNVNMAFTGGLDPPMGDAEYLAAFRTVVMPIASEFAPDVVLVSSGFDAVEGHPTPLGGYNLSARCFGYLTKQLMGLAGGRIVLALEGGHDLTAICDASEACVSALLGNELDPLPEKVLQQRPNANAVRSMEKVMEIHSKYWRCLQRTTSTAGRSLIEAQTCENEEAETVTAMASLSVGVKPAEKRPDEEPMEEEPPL

[15] = biological target: T5, Protein deacetylase HDAC6 (Homo sapiens, UniProt Q9UBN7); assay: Inhibition of recombinant human HDAC6 after 60 mins by fluorescence assay
T5 sequence (Q9UBN7 whole entry): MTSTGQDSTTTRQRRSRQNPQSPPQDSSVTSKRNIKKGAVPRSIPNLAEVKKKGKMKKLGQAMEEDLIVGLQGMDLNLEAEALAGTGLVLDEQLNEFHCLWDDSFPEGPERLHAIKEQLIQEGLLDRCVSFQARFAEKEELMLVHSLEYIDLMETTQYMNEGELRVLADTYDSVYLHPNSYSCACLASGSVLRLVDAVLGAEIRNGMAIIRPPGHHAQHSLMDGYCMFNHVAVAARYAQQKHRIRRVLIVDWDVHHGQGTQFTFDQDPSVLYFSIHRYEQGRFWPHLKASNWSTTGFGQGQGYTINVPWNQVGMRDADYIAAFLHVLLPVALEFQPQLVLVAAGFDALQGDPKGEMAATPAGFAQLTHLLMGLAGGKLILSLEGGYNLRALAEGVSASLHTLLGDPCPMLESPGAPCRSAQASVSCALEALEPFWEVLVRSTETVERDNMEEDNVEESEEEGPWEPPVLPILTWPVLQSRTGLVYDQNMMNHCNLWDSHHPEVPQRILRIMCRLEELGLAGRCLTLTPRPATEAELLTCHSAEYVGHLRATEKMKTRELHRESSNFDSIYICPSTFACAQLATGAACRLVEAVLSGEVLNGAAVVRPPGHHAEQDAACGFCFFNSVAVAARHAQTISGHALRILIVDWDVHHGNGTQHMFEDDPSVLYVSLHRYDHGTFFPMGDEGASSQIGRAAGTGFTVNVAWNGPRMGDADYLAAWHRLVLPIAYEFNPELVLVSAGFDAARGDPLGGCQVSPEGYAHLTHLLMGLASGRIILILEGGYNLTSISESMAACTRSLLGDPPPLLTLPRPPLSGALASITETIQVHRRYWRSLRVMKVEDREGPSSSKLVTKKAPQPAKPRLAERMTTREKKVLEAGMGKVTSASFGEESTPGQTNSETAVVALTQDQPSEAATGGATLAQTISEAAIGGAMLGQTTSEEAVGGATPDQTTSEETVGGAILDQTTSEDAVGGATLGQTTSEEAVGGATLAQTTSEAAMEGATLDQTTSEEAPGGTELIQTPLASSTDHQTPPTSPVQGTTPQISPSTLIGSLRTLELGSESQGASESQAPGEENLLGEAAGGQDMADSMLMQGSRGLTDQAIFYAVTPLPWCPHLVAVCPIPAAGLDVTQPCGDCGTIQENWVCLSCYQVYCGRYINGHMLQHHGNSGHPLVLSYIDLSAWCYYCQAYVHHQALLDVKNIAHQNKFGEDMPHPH

Histone deacetylase 2, sequence (Q92769 whole entry): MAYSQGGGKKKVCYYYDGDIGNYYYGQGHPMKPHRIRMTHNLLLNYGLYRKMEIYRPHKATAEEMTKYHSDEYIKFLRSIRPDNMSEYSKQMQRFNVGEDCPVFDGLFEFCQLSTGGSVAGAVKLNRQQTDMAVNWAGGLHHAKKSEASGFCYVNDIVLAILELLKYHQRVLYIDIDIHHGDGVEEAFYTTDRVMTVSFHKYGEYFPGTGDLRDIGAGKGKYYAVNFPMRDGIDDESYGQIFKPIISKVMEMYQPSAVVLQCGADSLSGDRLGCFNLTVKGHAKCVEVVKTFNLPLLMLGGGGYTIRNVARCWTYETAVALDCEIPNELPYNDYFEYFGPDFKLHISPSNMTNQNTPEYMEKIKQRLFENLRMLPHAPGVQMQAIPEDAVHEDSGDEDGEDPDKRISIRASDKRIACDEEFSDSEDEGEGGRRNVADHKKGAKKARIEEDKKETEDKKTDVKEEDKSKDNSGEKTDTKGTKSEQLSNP

SMILES	IC50 [1]	GI50 at 72 h [2]	IC50 [3]	GI50 ([4]; Homo sapiens, U-937, 72 h)	GI50 ([5]; Homo sapiens, MOLT-4, 72 h)	GI50 at 72 h [6]	IC50 [7]	IC50 [8]	IC50 [9]	IC50 [10]	GI50 ([11]; Homo sapiens, DU-145, 72 h)	IC50 [12]	IC50 [13]	IC50 [14]	IC50 [15]	GI50 [4]	GI50 [5]	GI50 [11]
CCCCCCCC(=O)SCC/C=C/[C@@H]1CC(=O)NCc2nc(cs2)C2=N[C@@](C)(CS2)C(=O)N[C@@H](C(C)C)C(=O)O1 [LARGAZOLE]	1010 nM	82.5 nM	2210 nM	16.8 nM	16.2 nM	39.7 nM	> 10000 nM	> 10000 nM	69.8 nM	> 10000 nM	11 nM	> 10000 nM	> 10000 nM	> 10000 nM	–	–	–	–
C/C=C1\NC(=O)C(CS)NC(=O)[C@@H](C(C)C)NC(=O)C[C@@H](/C=C/CCS)OC(=O)[C@H](C(C)C)NC1=O (single isomer, unassigned) [FR-135313]	1.4 nM	–	3.9 nM	–	–	–	> 10000 nM	> 10000 nM	–	25 nM	–	1760 nM	2360 nM	9570 nM	149 nM	–	–	–
C/C=C1\NC(=O)[C@H]2CSSCC/C=C/[C@H](CC(=O)N[C@H](C(C)C)C(=O)N2)OC(=O)[C@H](C(C)C)NC1=O [ROMIDEPSIN]	–	5.39 nM	11 nM	–	–	4.89 nM	> 10000 nM	> 10000 nM	1050 nM	–	–	> 10000 nM	> 10000 nM	> 10000 nM	–	–	–	–
O=C(CCCCCCC(=O)Nc1ccccc1)NO [VORINOSTAT]	–	6080 nM	–	–	–	1650 nM	–	–	–	–	–	–	–	–	–	1460 nM	542 nM	1590 nM
